Source: BigSolDB 2.1

CC(C)(C)c1ccc(OP2OCC3(CO2)COP(Oc2ccc(C(C)(C)C)cc2C(C)(C)C)OC3)c(C(C)(C)C)c1 (stereo not drawn)
Details | solubility (mole fraction)
in ethanol, 303.25 K | 0.000185
in ethanol, 308.15 K | 0.000249
in ethanol, 312.85 K | 0.000324
in ethanol, 318.15 K | 0.000365
in ethanol, 322.95 K | 0.000426
in ethanol, 328.15 K | 0.000534
in ethanol, 332.15 K | 0.000669
in isopropanol, 304.15 K | 0.000296
in isopropanol, 308.35 K | 0.000371
in isopropanol, 313.15 K | 0.000473
in isopropanol, 318.25 K | 0.000657
in isopropanol, 323.15 K | 0.000752
in isopropanol, 327.95 K | 0.00113
in isopropanol, 333.35 K | 0.00163
in methanol, 304.65 K | 5.05e-05
in methanol, 308.25 K | 5.84e-05
in methanol, 312.95 K | 7.84e-05
in methanol, 318.15 K | 0.000119
in methanol, 322.65 K | 0.000154
in n-propanol, 303.15 K | 0.000477
in n-propanol, 308.15 K | 0.000582
in n-propanol, 313.05 K | 0.000735
in n-propanol, 318.25 K | 0.000925
in n-propanol, 322.75 K | 0.00113
in n-propanol, 327.95 K | 0.00146
in n-propanol, 333.15 K | 0.00182
in tert-butanol, 302.95 K | 0.000674
in tert-butanol, 308.05 K | 0.000853
in tert-butanol, 313.15 K | 0.0012
in tert-butanol, 318.45 K | 0.00157
in tert-butanol, 323.05 K | 0.00222
in tert-butanol, 328.45 K | 0.00302
in tert-butanol, 332.95 K | 0.00379
